Measured values as given in patent US11339185B2, “Cyclic dinucleotides as anticancer agents” (Bristol-Myers Squibb Company, priority 2018, dated 2022).
Read-outs that look alike come from different tables or passages of the source.

Experiments:
[1] = tested on: THP1-Dual cells, NF-κB pathway; experiment: STING THP1 Reporter Assay, NF-κB pathway (SEAP, QUANTI-Blue); type: cell-based; conditions: 10% human plasma, SEAP readout (OD620), 100% activation = 100 μM cGAMP, read-out: THP1 Reporter Assays EC50 (μM) NFkB
Text: (§1) THP1-Dual™ cells were derived from the human THP-1 monocyte cell line by stable integration of two inducible reporter constructs. To this end, THP1-Dual™ cells allow the simultaneous study of the NF-κB pathway, by monitoring the activity of SEAP, and the IRF pathway by assessing the activity of a secreted luciferase (Lucia). Both reporter proteins are readily measurable in the cell culture supernatant when using QUANTI-Blue™, a SEAP detection reagent, and QUANTI-Luc™, a luciferase detection reagent.
(§2) THP1-Dual™ cells induce the activation of NF-κB in response to STING agonists. They also trigger the IRF pathway upon stimulation with STING agonists, such as cGAMP. Here, the THP-1-Dual cells were used to assess STING binders for function on the cellular level.
(§3) Serial dilutions of compounds in DMSO were added to low volume 384 well plates at 100 nl/well using an ECHO acoustic dispenser (Labcyte, model 550) to achieve final starting concentration of 100 μM in cell suspension. THP-1 Dual™ STING reporter cells (Invivogen, Dual cells cat #THPD-nfis) were added to the plates with compounds at 15,000 cells in 10 μL per well in RPMI media (Gibco, cat #11875) containing 10% human plasma in a low volume 384-well black wall clear bottom tissue culture plate (Corning, cat #3542) for SEAP assay and low volume solid white plate (Corning, cat #3826) for luciferase assay. One column of the plate was reserved for treatment with cGAMP at 100 μM for 100% activation calculation and one column for no treatment (DMSO only) for baseline activation. Plates were then incubated in 37 OC incubator at 5% CO2 for 20 hours.
(§4) In the SEAP assay, 5 μl of 2× QuantiBlue (Invivogen, cat #Rep-qb2) is added to 384 well black plates seeded with THP1 cells and incubated at 37° C. for 2 hours. Plates were read on the Envision (Perkin Elmer) at 620 nm wavelength (OD620). In the luciferase assay, 5 μl of Quantiluc (Invivogen, Rep-qlc2) is added to white 384 well plates seeded with THP1 cells and read at 5 minutes on the Envision (Perkin Elmer) using a luminescence protocol (RLU). For both cell lines, 100% activation was determined by value (RLU) of THP-1 Dual STING cells stimulated with 100 μM cGAMP (Invivogen, cat #TLRL-NACGA23-5).

[2] = tested on: THP1-Dual cells, IRF pathway (IRF3); experiment: STING THP1 Reporter Assay, IRF pathway (secreted Lucia luciferase, QUANTI-Luc); type: cell-based; conditions: 10% human plasma, luciferase readout, 100% activation = 100 μM cGAMP, read-out: THP1 Reporter Assays EC50 (μM) IRF3
Text: as §1, §2, §3, §4

[3] = target: T1, STING WT: His-TVMV-S-hSTING(155-341)-H232R (Homo sapiens, UniProt Q86WV6, H232R); experiment: STING HTRF binding assay (time resolved FRET competition), STING WT; conditions: 20 nM His-tagged STING WT cytoplasmic domain, 200 nM fluorescein-labeled cGAMP analog probe, one hour; read-out: HTRF Binding Assays IC50 (μM) WT
T1 construct: STING WT: His-TVMV-S-hSTING(155-341)-H232R
T1 sequence (Q86WV6 with tags, fused parts or gaps H232R): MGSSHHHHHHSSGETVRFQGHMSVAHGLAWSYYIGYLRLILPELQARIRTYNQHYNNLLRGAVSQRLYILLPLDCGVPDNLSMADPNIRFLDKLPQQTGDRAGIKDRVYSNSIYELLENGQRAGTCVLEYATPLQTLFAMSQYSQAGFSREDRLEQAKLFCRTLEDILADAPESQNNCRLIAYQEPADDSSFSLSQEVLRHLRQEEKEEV
Experimental: (§5) A time resolved FRET-based competition binding assay was used to assess test article binding to STING WT and STING AQ. His-tagged STING cytoplasmic domain (WT or AQ) at a concentration of 20 nM was incubated with 2.5 nM Tb-labeled anti-His antibody, test compound, and fluorescein-labeled cGAMP analog probe (BioLog cat. no. C195) at a concentration of 200 nM (STING WT) or 40 nM (STING AQ) in PBS containing 0.005% Tween-20 and 0.1% BSA for one hour. Fluorescence at 495 nm and 520 nm was measured using an EnVision microplate reader to quantify FRET between Tb-labeled anti-His antibody and fluorescein-labeled probe. Background was defined as the signal obtained in the absence of STING protein, and background subtracted FRET ratios were normalized to the maximum signal obtained in the absence of test compound. These values were converted to a percent inhibition. Percent inhibition was determined for test compounds at 11 concentrations. The IC50, defined as the concentration of competing test compound needed to reduce specific binding of the probe by 50%, was calculated using the 4 parameter logistic equation to fit the data

[4] = target: T2, STING AQ: His-TVMV-S-hSTING(155-341)-G230A-R293Q (Homo sapiens, UniProt Q86WV6, G230A/H232R/R293Q); experiment: STING HTRF binding assay (time resolved FRET competition), STING AQ; conditions: 20 nM His-tagged STING AQ cytoplasmic domain, 40 nM fluorescein-labeled cGAMP analog probe, one hour; read-out: HTRF Binding Assays IC50 (μM) AQ
T2 construct: STING AQ: His-TVMV-S-hSTING(155-341)-G230A-R293Q
T2 sequence (Q86WV6 with tags, fused parts or gaps G230A/H232R/R293Q): as the sequence (Q86WV6 with tags, fused parts or gaps H232R) above, with G99A, R162Q counted along it
Experimental: as §5

EC50 ([1]; 20 hours) [µM] | EC50 ([2]; 20 hours) [µM] | IC50 [3] [µM] | IC50 [4] [µM] | EC50 ([1]; Homo sapiens, THP1-Dual, 20 h) [µM] | EC50 ([2]; Homo sapiens, THP1-Dual, 20 h) [µM] | SMILES
> 100 | > 100 | 6.97 | 0.2 | – | – | Nc1ncnc2c1ncn2[C@@H]1O[C@@H]2COP(=O)(S)OC[C@@H]3[C@@H](COP(=O)(S)O[C@H]2[C@H]1F)C[C@H]3n1cnc2c(=O)n3cnnc3[nH]c21 (single isomer, unassigned) [Example 21-2]
– | > 100 | 5.68 | 0.1 | > 100 | – | Nc1ncnc2c1ncn2[C@@H]1O[C@@H]2COP(=O)(S)OC[C@@H]3[C@@H](COP(=O)(S)O[C@H]2[C@H]1F)C[C@H]3n1cnc2c(=O)[nH]cnc21 (single isomer, unassigned) [Example 22-1]
> 100 | > 100 | 2.71 | 0.04 | – | – | Nc1ncnc2c1ncn2[C@@H]1O[C@@H]2COP(=O)(S)OC[C@@H]3[C@@H](COP(=O)(S)O[C@H]2[C@H]1F)C[C@H]3n1cnc2c(=O)[nH]cnc21 (single isomer, unassigned) [Example 22-3]
91.7 | 13 | 0.12 | 0.01 | – | – | Nc1ncnc2c1ncn2[C@@H]1O[C@@H]2COP(=O)(S)OC[C@@H]3[C@@H](COP(=O)(S)O[C@H]2[C@H]1F)C[C@H]3n1cnc2c(=O)[nH]cnc21 (single isomer, unassigned) [Example 22-4]

The remaining lines, values behind:

SMILES | EC50 ([1]; 20 hours) [µM] | EC50 ([2]; 20 hours) [µM] | IC50 [3] [µM] | IC50 [4] [µM] | EC50 ([1]; Homo sapiens, THP1-Dual, 20 h) [µM] | EC50 ([2]; Homo sapiens, THP1-Dual, 20 h) [µM]
Nc1ncnc2c1ncn2[C@@H]1O[C@@H]2COP(=O)(S)OC[C@@H]3[C@@H](COP(=O)(S)O[C@H]2[C@H]1F)C[C@H]3n1cnc2c(=O)n3nnnc3[nH]c21 (single isomer, unassigned) [Example 23] | – | – | 4.96 | 0.07 | 92.2 | > 100
Nc1ncnc2c1ncn2[C@@H]1C[C@@H]2COP(=O)(S)O[C@@H]3[C@H](F)[C@@H](COP(=O)(O)OC[C@H]21)O[C@H]3n1cnc2c(=O)n3ccnc3[nH]c21 (stereo partly drawn) [Example 7, 3-[(1S,6S,8R,9R,15R,17R,18R)-8-(6-amino-9H-purin-9-yl)-18-fluoro-3,12-dihydroxy-12-oxo-3-sulfanylidene-2,4,11,13,16-pentaoxa-3λ^5,12λ^5-diphosphatricyclo[13.2.1.0^6,9]octadecan-17-yl]-3H,5H,9H-imidazo[1,2-a]purin-9-one] | – | – | 0.12 | 0.002 | 11.5 | 3.01
NC(=O)c1cc([C@@H]2C[C@@H]3COP(=O)(O)O[C@H]4[C@@H](F)[C@H](n5cnc6c(N)ncnc65)O[C@@H]4COP(=O)(O)OC[C@H]32)ccn1 [Example 12, 4-[(1R,6S,8R,9S,15R,17R,18R)-17-(6-amino-9H-purin-9-yl)-18-fluoro-3,12-dihydroxy-3,12-dioxo-2,4,11,13,16-pentaoxa-3λ^5,12λ^5-diphosphatricyclo[13.3.0.0^6,9]octadecan-8-yl]pyridine-2-carboxamide] | – | – | 31.2 | 0.35 | > 100 | > 100
Nc1ncnc2c1ncn2[C@@H]1C[C@@H]2COP(=O)(O)O[C@H]3[C@@H](F)[C@H](n4cnc5c4ncn4ccnc54)O[C@@H]3COP(=O)(O)OC[C@H]21 [Example 16, (1R,6S,8R,9R,15R,17R,18R)-8-(6-amino-9H-purin-9-yl)-18-fluoro-3,12-dihydroxy-17-{3H-imidazo[2,1-f]purin-3-yl}-2,4,11,13,16-pentaoxa-3λ^5,12λ^5-diphosphatricyclo[13.3.0.0^6,9]octa-decane-3,12-dione] | – | – | 4.66 | 0.02 | 72.8 | 23.9
NC(=O)c1cc([C@@H]2C[C@@H]3COP(=O)(S)O[C@H]4[C@@H](F)[C@H](n5cnc6c5ncn5ccnc65)O[C@@H]4COP(=O)(S)OC[C@H]32)ccn1 (stereo partly drawn) [Example 19, 4-[(1R,6S,8R,9S,15R,17R,18R)-18-fluoro-17-{3H-imidazo[2,1-f]purin-3-yl}-3,12-dioxo-3,12-disulfanyl-2,4,11,13,16-pentaoxa-3λ^5,12λ^5-diphosphatricyclo[13.3.0.0^6,9]octa-decan-8-yl]pyridine-2-carboxamide] | – | – | 0.01 | 0.01 | 2.38 | 0.97
